{"source": "ChEMBL document CHEMBL1135133", "about": "“Scaffold hopping and optimization towards libraries of glycogen synthase kinase-3 inhibitors” (Bioorg Med Chem Lett, 2002)", "data": [{"target": "Glycogen synthase kinase-3 beta (Homo sapiens, UniProt P49841)", "sequence (P49841 whole entry)": "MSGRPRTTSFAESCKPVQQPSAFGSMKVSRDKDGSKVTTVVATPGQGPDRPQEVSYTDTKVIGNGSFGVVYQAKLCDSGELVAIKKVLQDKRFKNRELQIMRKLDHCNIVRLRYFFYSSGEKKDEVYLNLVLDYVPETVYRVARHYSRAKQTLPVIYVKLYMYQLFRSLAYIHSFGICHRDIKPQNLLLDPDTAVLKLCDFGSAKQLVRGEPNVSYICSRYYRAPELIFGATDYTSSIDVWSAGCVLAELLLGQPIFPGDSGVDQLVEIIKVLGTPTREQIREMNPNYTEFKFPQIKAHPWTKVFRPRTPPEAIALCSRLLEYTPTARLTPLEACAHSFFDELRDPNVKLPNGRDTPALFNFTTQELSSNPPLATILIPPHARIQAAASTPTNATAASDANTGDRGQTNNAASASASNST", "test": "Inhibitory concentration against human Glycogen synthase kinase-3", "units": {"IC50": "µM"}, "values": [{"smiles": "O=C(O)c1cccc(CSc2nnc(-c3ccncc3)o2)c1", "IC50": 235}, {"smiles": "O=C(O)Cc1ccc(CSc2nnc(-c3ccncc3)s2)cc1", "IC50": 11}, {"smiles": "O=C(O)c1ccc(CSc2nnc(-c3ccncc3)o2)cc1", "IC50": 29}, {"smiles": "O=C(Cc1ccc(CSc2nnc(-c3ccncc3)o2)cc1)NCCc1ccccc1F", "IC50": 1.2}, {"smiles": "Ic1ccc(CSc2nnc(-c3ccncc3)o2)cc1", "IC50": 198}, {"smiles": "COC(=O)c1cccc(CSc2nnc(-c3ccncc3)o2)c1", "IC50": 1.1}, {"smiles": "Fc1cccc(CSc2nnc(-c3ccncc3)o2)c1", "IC50": 1.4}, {"smiles": "Cc1nc(-c2cccc(CSc3nnc(-c4ccncc4)o3)c2)no1", "IC50": "> 250"}, {"smiles": "O=C(O)Cc1ccc(CSc2nnc(-c3ccccn3)s2)cc1", "IC50": "> 250"}, {"smiles": "O=C(O)Cc1ccc(CSc2nnc(-c3cccnc3)s2)cc1", "IC50": "> 250"}, {"smiles": "Clc1ccccc1CSc1nnc(-c2ccncc2)o1", "IC50": 12}, {"smiles": "Clc1cccc(CSc2nnc(-c3ccncc3)o2)c1", "IC50": 0.82}, {"smiles": "c1ccc(CCSc2nnc(-c3ccncc3)o2)cc1", "IC50": 29}, {"smiles": "c1ccc(CSc2nnc(-c3ccncc3)o2)cc1", "IC50": 6.7}, {"smiles": "O=C(O)Cc1ccc(CSc2n[nH]c(-c3ccncc3)n2)cc1", "IC50": "> 250"}, {"smiles": "O=C(O)Cc1ccc(CSc2nnc(-c3ccncc3)o2)cc1", "IC50": 8}]}]}
